Laboratory results taken from patent publication US6486161B1, “Use of rifamycin derivative for treating mastitis in a domestic animal” (priority 2000, dated 2002).
In brackets after ≈: the same amount, converted by molar mass. Like-named read-outs stand apart in the source and are kept apart here.

Columns and labels:
[1] = system: Staphylococcus aureus 9203; assay: S. aureus intracellular killing assay in bovine PMN; assay type: cell-based; settings: overnight incubation (18 to 21 hours)
Description: The therapeutic effect of the rifamycin derivative (1) was determined by S. aureus intracellular killing assay in bovine polymorphonuclear neutrophil (PMN).
The procedure for PMN isolation was as described in Carlton et al. (Proc. Soc. Exp. Biol. Med. 142: 853-858 (1973)).
Bovine blood collected by venipuncture in 50-ml syringes containing 1.5% EDTA (pH 6.8) was centrifuged at 1,000×g for 25 min. The plasma-buffer layer and the top few millileters were discarded. The packed erythrocyte fraction was pooled in 0.8% NaCl-phosphate buffer (pH 6.8) and 10 ml was placed in 20 ml of sterile water for 40 seconds to lyse the erythrocytes. Immediately thereafter, 10 ml of a 2.7% NaCl-phosphate buffer solution was added to restore isotonicity. The leukocytes, consisting of ≦84% PMNs, were washed twice and suspended in HBSS. PMNs were adjusted to a final concentration of 10^7 cells per ml.
The intracellular killing assay was carried out as described in Sanchez et al. (Antimicrobial Agents and Chemotherapy 29(4): 634-638 (1986)).
Bovine blood PMNs and bacteria (1:1) were suspended in HBSS containing 10% heterologous bovine serum. The mixture was incubated for 90 minutes at 37° C. in Erlenmeyer flasks with rotational mixing at 110 rpm. Lysostaphin (5 μg/ml) was added to the mixture for the final 15 minutes of incubation. The infected PMNs were washed 3 times by low-speed centrifugation and suspended in HBSS. Cells were pipetted (1 ml) into each well of a six-well cluster dish (Bellco Glass, Inc., Vineland, N.J.) at 5×10^6 PMNs per well. PMNs were allowed to attach and form a monolayer for 10 minutes at 37° C. The supernatant fluid with unattached cells was discarded, and 2 ml of fresh HBSS was added to each well. The rifamycin derivatives to be tested were then added to the wells (one six-well plate per drug). These derivatives were dissolved in dimethylsulfoxide, and then diluted in HBSS to final solvent concentrations of 0.01% (vol/vol) or less.
After overnight incubation (18 to 21 hours) at 37° C. with 1% CO2, lysostaphin (5 μg/ml) was added to each well for 15 min (at 37° C.) to kill extracellular bacteria. The monolayers were washed with HBSS, and the cells were lysed by addition of 1 ml of water to each well. The number of viable bacteria was then estimated by plate counts on brain heart infusion agar. […] The results are shown in Table 2, wherein R is the alkyl group in the rifamycin derivative (1).

[2] = system: S. aureus 30857, a rifampin-resistant isolate; assay: MIC, microbroth dilution, strain 30857; assay type: cell-based, Staphylococcus aureus; settings: for MIC: strain 30857
Description: (§1) Four S. aureus strains were used: S. aureus 30857, a rifampin-resistant isolate: S. aureus 6097, a strain used in the mouse mastitis test and originally from a case of gangrenous bovine mastitis; S. aureus B83-1, derived from the Newbould 305 strain; and S. aureus ATCC 29213, the in vitro control stain recommended by NCCLS.
(§2) All S. aureus strains were maintained on 3 mm glass beads immersed in trypticase soy broth (BBL Microbiology Systems, Cockeysville, Md.) with 10% glycerol and held at −70° C. until revived. Prior to testing, the strains were subcultured on tryptose blood agar base (Difco, Detroit, Mich.) supplemented with 5% sheep blood for 24 hours at 35° C.
(§3) These compounds were dissolved in 95% ethanol, a solution which was then diluted to 10% ethanol with sterile distilled water. Further dilutions were conducted in water.
(§4) MIC (Minimum Inhibitory Concentration) determinations were performed using the microbroth dilution method. (National Committee for Clinical Laboratory Standards, 1990 Approved Standard […]. Methods for dilution antimicrobial susceptibility tests for bacteria that grow aerobically, 3rd edition. National Committee for Clinical Laboratory Standards, Villanova, Pa.) The results are shown in Table 3, wherein R is the alkyl group R in the rifamycin derivative (1).

[3] = system: S. aureus B83-1; assay: MIC, microbroth dilution, strain B83-1; assay type: cell-based, Staphylococcus aureus
Description: as §1, §2, §3, §4

[4] = system: S. aureus ATCC 29213; assay: MIC, microbroth dilution, strain ATCC 29213; assay type: cell-based, Staphylococcus aureus
Description: as §1, §2, §3, §4

[5] = system: S. aureus 30857, a rifampin-resistant isolate; assay type: cell-based, Staphylococcus aureus; settings: strain 30857
Description: (§5) The mutation frequency for development of resistance to the rifamycin derivative (1) as compared to rifampin was determined with selected Staphylococcus aureus strains.
as §1, §2, §3
(§6) The mutation frequency for development of resistance to the compounds tested was determined by the following method. A single colony of each strain was removed from the surface of a blood agar plate with a cotton swab, suspended in 5 ml of Mueller-Hinton broth (BBL), and streaked on the entire surface of five Mueller-Hinton agar plates. The plates were incubated overnight under aerobic conditions at 35° C., growth was removed from the agar using a sterile cotton swab, and the bacteria were suspended in 10 ml physiological saline. This bacterial suspension was the inoculum for the mutation frequency determinations. Standard plate counts were performed on the inoculum by performing serial dilutions and plating a 0.1 ml aliquot on the surface of ten Mueller-Hinton agar plates at each concentration. The plates were incubated for 18-24 hours at 35° C. under aerobic conditions and colony counts performed. Mean bacterial counts were calculated for the inoculum with each strain.
(§7) A 0.1 ml aliquot of the inoculum was then used to inoculate the entire surface of ten plates each containing 1, 10, and 100 μg/ml of the test antimicrobial agents. The plates were incubated for 18-24 hours at 35° C. under aerobic conditions and colony counts performed. Mean bacterial counts were calculated for each antimicrobial concentration and the mutation frequency calculated by dividing the number of colonies which grew on the drug containing media by the inoculum size.

[6] = system: S. aureus ATCC 29213; assay: Mutation frequency for resistance, strain ATCC 29213; assay type: cell-based, Staphylococcus aureus
Description: as §5, §1, §2, §3, §6, §7

With `COC1/C=C/OC2(C)Oc3c(C)c(O)c4c(=O)c(c5oc6cc(N7CCN(C)CC7)cc(O)c6nc-5c4c3C2=O)NC(=O)/C(C)=C\C=C\C(C)C(O)C(C)C(O)C(C)C(OC(C)=O)C1C` (stereo not drawn) [R = methyl] the “% reduction” value ([1]; 1X MIC) was 92.0%, the “CFU/ml ISD (×10^3)” value ([1]; 1X MIC) was 0.3 ± 0.1 CFU/ml (×10^3) and the “% reduction” value ([1]; 100X MIC) was 100%. For the same compound, the “CFU/ml ISD (×10^3)” value ([1]; 100X MIC) was 0.0 CFU/ml (×10^3), the “effectiveness against rifampin-resistant strains” value ([2]; MIC, in words) was “effective against rifampin-resistant strains” and the MIC [2] was 500 ng/mL (≈ 556 nM). The MIC [3] was 0.061 ng/mL (≈ 0.0679 nM), the MIC [4] was 0.061 ng/mL (≈ 0.0679 nM) and the Mutation frequency ([5]; 1 μg/ml) was <1.6 × 10^−10. The Mutation frequency ([5]; 10 μg/ml) was <1.6 × 10^−10, the Mutation frequency ([5]; 100 μg/ml) was <1.6 × 10^−10 and the Mutation frequency ([6]; 1 μg/ml) was 2.1 × 10^−9. For the same compound, the Mutation frequency ([6]; 10 μg/ml) was <1.1 × 10^−9 and the Mutation frequency ([6]; 100 μg/ml) was <1.1 × 10^−9.

`CO[C@H]1/C=C/O[C@@]2(C)Oc3c(C)c(O)c4c(O)c(c(/C=N/N5CCN(C)CC5)c(O)c4c3C2=O)NC(=O)/C(C)=C\C=C\[C@H](C)[C@H](O)[C@@H](C)[C@@H](O)[C@@H](C)[C@H](OC(C)=O)[C@@H]1C` [Rifampin, reference compound] was tested, and the “% reduction” value ([1]; 1X MIC) was 83.0%, the “CFU/ml ISD (×10^3)” value ([1]; 1X MIC) was 0.6 ± 0.3 CFU/ml (×10^3) and the “% reduction” value ([1]; 100X MIC) was 85.0%. For the same compound, the “CFU/ml ISD (×10^3)” value ([1]; 100X MIC) was 0.5 ± 0.2 CFU/ml (×10^3), the MIC ([2]; Staphylococcus aureus, read-out: MIC) was over 4000 ng/mL and the MIC ([3]; Staphylococcus aureus, B831, read-out: MIC) was 1.9 ng/mL (≈ 2.31 nM). The MIC ([4]; Staphylococcus aureus, ATCC29213, read-out: MIC) was 1.9 ng/mL (≈ 2.31 nM), the Mutation frequency ([5]; 1 μg/ml) was >1.0 × 10^−7 and the Mutation frequency ([5]; 10 μg/ml) was >1.0 × 10^−7. For the same compound, the Mutation frequency ([5]; 100 μg/ml) was >1.0 × 10^−7, the Mutation frequency ([6]; 1 μg/ml) was 2.6 × 10^−8 and the Mutation frequency ([6]; 10 μg/ml) was 2.5 × 10^−8. For the same compound, the Mutation frequency ([6]; 100 μg/ml) was 1.9 × 10^−8.
